The conditions of this series: PAMPA.

With `CCN(C)C(=O)Oc1cccc([C@H](C)N(C)C)c1` [rivastigmine], the CNS prediction entry is “CNS + (key: CNS +: high BBB permeation predicted, Pe (×10-6 cm s-1) > 4.0; CNS -: low BBB permeation predicted, Pe (×10-6 cm s-1) < 2.0)”.

The record behind these values is paper PMC9354084 (ACS Chemical Neuroscience, 2022).
